Structures are written as SMILES. Several values for one entry are separate records, joined by “and”; a condition that tells them apart may be missing. Identical values can stand only once.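 48-hour exposure; five concentrations; linearly interpolated endpoints. The concentration for 50% growth inhibition is given as GI50. TGI: concentration producing complete growth inhibition.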 Some results are limits rather than exact numbers.

Among the test systems are A549 NSCLC; HCC-2998 colon; HCT-15 colon; HS 578T breast; IGROV1 ovarian; MOLT-4 leukemia; NCI-H460 lung; NCI-H522 lung; SF-268 CNS; SK-OV-3 ovarian.
Holding throughout (test): growth of human tumour cells (NCI), 48 h

In the case of `CC1=CC[C@@H]2[C@@H](CC[C@@]2(C)O)C(C)(C)[C@H]1CC[C@@H]1[C@@]2(C)CCC(=O)C(C)(C)O[C@@H]2CC[C@]1(C)O`, the TGI with A549 NSCLC is greater than 100 µM; with HCC-2998 colon, 40.9 µM; in the assay on HCT-15 colon, 34.3 µM; in the assay with HS 578T breast it was 77 µM; with IGROV1 ovarian it was 76.5 µM; in the assay with MOLT-4 leukemia it was 68.5 µM. Also, the TGI in the assay with NCI-H460 lung is 35.8 µM; with NCI-H522 lung it was 38.9 µM; with SF-268 CNS it was greater than 100 µM; in the assay on SK-OV-3 ovarian, greater than 100 µM.

In the case of `Brc1c[n+](Cc2ccc3ccccc3c2)cn1Cc1ccc2ccccc2c1`, the GI50 was 6.9 µM in the assay with A549 NSCLC; 1.46 µM in the assay with HCC-2998 colon; 11.5 µM in the assay with HCT-15 colon; 1.92 µM with HS 578T breast; 0.676 µM in the assay with IGROV1 ovarian; 1.79 µM in the assay with MOLT-4 leukemia. The GI50 in the assay with NCI-H460 lung is 1.78 µM; with NCI-H522 lung, 1.53 µM; in the assay on SF-268 CNS, 1.47 µM; with SK-OV-3 ovarian, 2.56 µM. Moreover, the TGI with A549 NSCLC is 29.4 µM; in the assay on HCC-2998 colon, 2.84 µM; with HCT-15 colon, 25.7 µM; with HS 578T breast, 4.84 µM; in the assay on IGROV1 ovarian, 2.08 µM; in the assay on MOLT-4 leukemia, 5.58 µM. For the same compound, the TGI in the assay with NCI-H460 lung worked out at 3.57 µM; with NCI-H522 lung, 3.85 µM; in the assay on SF-268 CNS it was 3.02 µM; in the assay with SK-OV-3 ovarian, 11.4 µM.

For the compound `O=C(NNc1nc2cc(F)ccc2n2c(CN3CCOCC3)ccc12)c1ccccc1`, the GI50 in the assay with A549 NSCLC is 0.303 µM; in the assay on HCC-2998 colon it was 0.569 µM; in the assay on HCT-15 colon it was 0.0577 µM; in the assay on HS 578T breast, 1.51 µM; with IGROV1 ovarian it was 0.139 µM; with MOLT-4 leukemia, 0.175 µM. In addition, the GI50 in the assay on NCI-H460 lung is 0.0724 µM; in the assay with NCI-H522 lung it was 0.369 µM; in the assay on SF-268 CNS it was 0.243 µM; in the assay with SK-OV-3 ovarian it was 0.405 µM. For the same compound, the TGI was found to be 2.25 µM with A549 NSCLC; 3.07 µM in the assay with HCC-2998 colon; 1.41 µM in the assay on HCT-15 colon; 8.05 µM in the assay on HS 578T breast; 1.47 µM with IGROV1 ovarian; 2.18 µM with MOLT-4 leukemia. Moreover, the TGI was determined as 1.32 µM with NCI-H460 lung, 3.52 µM in the assay on NCI-H522 lung, 2.69 µM in the assay with SF-268 CNS and 3.39 µM with SK-OV-3 ovarian.

Consider `COC1/C=C/O[C@@]2(C)Oc3c(C)c(O)c4c(O)c(cc(O)c4c3C2=O)NC(=O)/C(C)=C\C=C\[C@H](C)C(O)[C@@H](C)[C@@H](O)[C@@H](C)[C@H](OC(C)=O)[C@@H]1C` (stereo not given in full), for which the GI50 with A549 NSCLC was 16.8 µM and 58.5 µM; in the assay with HCC-2998 colon, 15.8 µM; with HCT-15 colon, 20.9 µM; in the assay with HS 578T breast, 24.2 µM; in the assay with IGROV1 ovarian, 16 µM; in the assay with MOLT-4 leukemia it was 7.42 µM. In addition, the GI50 is 18.8 µM and 32.7 µM with NCI-H460 lung; 2.72 µM in the assay with NCI-H522 lung; 18.3 µM with SF-268 CNS. The TGI was 31.3 µM and 143 µM in the assay with A549 NSCLC; 29.2 µM and 49.2 µM in the assay with HCC-2998 colon; 35.1 µM and 49.8 µM in the assay with HCT-15 colon; 64.6 µM and 114 µM in the assay on HS 578T breast; 29.5 µM and 56.3 µM in the assay on IGROV1 ovarian; 36.3 µM and 62.5 µM in the assay with MOLT-4 leukemia. For the same compound, the TGI in the assay on NCI-H460 lung was 37 µM and 79.8 µM; in the assay with NCI-H522 lung, 11.2 µM and 20.5 µM; in the assay on SF-268 CNS, 33.4 µM and 61.7 µM; in the assay with SK-OV-3 ovarian, 211 µM.

In the case of `CCCOC(=O)N[C@H]1CCc2c(Br)c(OC)c(OC)c(OC)c2-c2ccc(SC)c(=O)cc21`, the GI50 in the assay with A549 NSCLC is 0.0395 µM; with HCC-2998 colon, 0.0317 µM; in the assay with HCT-15 colon, 0.0218 µM; in the assay on HS 578T breast, 0.0321 µM; with IGROV1 ovarian, 0.0377 µM; in the assay on MOLT-4 leukemia, 0.0382 µM. Moreover, the GI50 with NCI-H460 lung was 0.0306 µM; in the assay with NCI-H522 lung, less than 0.0119 µM; with SF-268 CNS it was 0.0455 µM; with SK-OV-3 ovarian it was 0.0726 µM. Besides, the TGI in the assay on A549 NSCLC is greater than 68.4 µM; with HCC-2998 colon, 4.26 µM; in the assay on HCT-15 colon, greater than 36 µM; in the assay on HS 578T breast, 49.1 µM; in the assay on IGROV1 ovarian it was greater than 46.2 µM; in the assay with MOLT-4 leukemia it was greater than 100 µM. The TGI in the assay on NCI-H460 lung is 2.02 µM; in the assay with NCI-H522 lung, 0.558 µM; in the assay on SF-268 CNS it was 17.8 µM; in the assay on SK-OV-3 ovarian it was 59.5 µM.

As for `Cc1cc(N(CCCl)CCCl)ccc1C=Nc1cccnc1`, the GI50 with A549 NSCLC was 14.3 µM; in the assay on HCC-2998 colon it was 16.8 µM; in the assay with HCT-15 colon, 27.5 µM; with HS 578T breast it was 37.7 µM; in the assay with IGROV1 ovarian, 4.97 µM; in the assay on MOLT-4 leukemia, 2.05 µM. For the same compound, the GI50 in the assay with NCI-H460 lung is 0.369 µM; in the assay on NCI-H522 lung, 14.3 µM; in the assay on SF-268 CNS it was 11.3 µM; in the assay with SK-OV-3 ovarian, 7.57 µM. The TGI in the assay with A549 NSCLC is greater than 100 µM; in the assay on HCC-2998 colon it was 32 µM; in the assay on HCT-15 colon, greater than 100 µM; with HS 578T breast, greater than 100 µM; in the assay with IGROV1 ovarian, greater than 84.1 µM; in the assay with MOLT-4 leukemia, greater than 80.9 µM. Besides, the TGI was greater than 47.7 µM in the assay with NCI-H460 lung, 38.1 µM in the assay with NCI-H522 lung, greater than 100 µM in the assay on SF-268 CNS and greater than 59.3 µM in the assay on SK-OV-3 ovarian.

In the case of `Cc1c(Cl)cccc1NC(=O)CC1Sc2ccccc2NC1=O` (stereo not given), the TGI in the assay on A549 NSCLC was 54.2 µM and > 100 µM; in the assay with HCC-2998 colon it was 52.7 µM and 34.9 µM; in the assay on HCT-15 colon it was greater than 100 µM; with HS 578T breast, 25.3 µM; in the assay on IGROV1 ovarian, 65 µM and > 100 µM; in the assay with MOLT-4 leukemia it was greater than 100 µM. Also, the TGI is 61.5 µM and 62.5 µM in the assay on NCI-H460 lung; 64.7 µM and 79.7 µM in the assay on NCI-H522 lung; 46.6 µM and > 100 µM with SF-268 CNS; 33 µM and 39.3 µM with SK-OV-3 ovarian. Further, the GI50 in the assay on HCT-15 colon is 8.53 µM and 41.9 µM; in the assay on IGROV1 ovarian, 20 µM and 45.1 µM; in the assay on SF-268 CNS it was 18.4 µM and 37.1 µM.

`COc1ccc(-c2cc3c4c(nc5ccccc5c4c2)CC(c2cc(OC)c(OC)c(OC)c2)O3)cc1` (stereo not given): the GI50 was 4.32 µM in the assay on HCC-2998 colon; 3.73 µM with HCT-15 colon; 1.24 µM in the assay on HS 578T breast; 2.66 µM in the assay with IGROV1 ovarian; greater than 100 µM with MOLT-4 leukemia; 1.46 µM in the assay on NCI-H460 lung. Further, the GI50 with NCI-H522 lung was 2.63 µM; in the assay on SF-268 CNS it was 1.72 µM; in the assay on SK-OV-3 ovarian, 4.08 µM. The TGI with HCC-2998 colon was greater than 100 µM; in the assay with HCT-15 colon it was greater than 100 µM; in the assay with HS 578T breast, 6.81 µM; in the assay on IGROV1 ovarian, 12.6 µM; in the assay with MOLT-4 leukemia, greater than 100 µM; in the assay on NCI-H460 lung, 4.79 µM. In addition, the figures for the TGI in the assay with NCI-H522 lung, in the assay on SF-268 CNS and with SK-OV-3 ovarian were 13.9 µM, 5.48 µM and 17.2 µM, respectively.
